Test results from ChEMBL document CHEMBL1129003, “Cycloleonuripeptides A, B and C, three new proline-rich cyclic nonapeptides from Leonurus heterophyllus” (Bioorg Med Chem Lett, 1996).
Converted amounts (≈) assume the structure as drawn.

Tested on: P388
Assay: Compound was evaluated for the growth inhibitory activity against p-388 lymphocytic leukemia cells.
Type: functional, cell-based, Mus musculus

IC50 (p388) [µg/mL]	IC50 (Mus musculus, P388, read-out: IC50) [µg/mL]	Structure (SMILES)
6 (≈ 6.21 µM)		CC[C@@H](C)[C@H]1NC(=O)[C@@H](CC[S+](C)[O-])NC(=O)[C@H]2CCCN2C(=O)[C@H]2CCCN2C(=O)[C@@H](Cc2ccc(O)cc2)NC(=O)[C@H]2CCCN2C(=O)[C@H]2CCCN2C(=O)[C@H]2CCCN2C(=O)CNC1=O (single isomer, unassigned; isomer 1)
	3.7 (≈ 3.83 µM)	CC[C@@H](C)[C@H]1NC(=O)[C@@H](CC[S+](C)[O-])NC(=O)[C@H]2CCCN2C(=O)[C@H]2CCCN2C(=O)[C@@H](Cc2ccc(O)cc2)NC(=O)[C@H]2CCCN2C(=O)[C@H]2CCCN2C(=O)[C@H]2CCCN2C(=O)CNC1=O (single isomer, unassigned; isomer 2)
